{"source": "patent US12077566B2", "about": "“Mutants of recombinant immunoregulatory protein of Ganoderma lucidum and applications thereof” (priority 2017, dated 2024)", "key": {"[1]": {"tested_on": "rLZ-8 internalization in Hep G2 cells", "assay": "Inhibitor screening of rLZ-8 endocytosis", "type": "cell-based", "protocol": "The rLZ-8 is labeled by an Alexa Fluor 568 fluorescent probe; then 10 μg/mL fluorescent labeled rLZ-8 acts on Hep G2 cells for 3 hours; whether the rLZ-8 enters the cell is observed with the ultrahigh resolution imaging system; and obtained images are reconstructed, fitted and further analyzed through an image analysis software of Imaris.\nInhibitors of different internalization ways are selected, respectively EIPA (macropinocytosis inhibitor), Wortmannin/LY294002 (P13K inhibitor), Nystatin+Progesterone (caveolae inhibitor) and Chlorpromazine (clathrin inhibitor); the inhibitors respectively act on the Hep G2 cells, and inhibitory effects of the inhibitors on rLZ-8 endocytosis are observed."}, "[2]": {"tested_on": "human liver cancer Hep G2 cells", "conditions": "for Mice weight after experiment: mouse, in vivo; for Mice tumor weight after experiment / Survival rate of mice after experiment: qd×28 i.v., rLZ-8 and mutants 0.5 mg/kg, sorafenib 50 mg/kg; for Survival rate of mice after experiment: 10 mice per group", "excerpt": "Two weeks later, the model mice are divided into groups randomly, and each group has 10 mice. The administration method is caudal vein injection, once a day, for consecutive 28 days (qd×28, i.v.). […] During the experiment, if the mouse dies, the dead mouse is weighted on the same day, and the tumor tissue is taken out to be weighted. For the living mouse after administration for 28 days, the mouse is killed, and then the tumor tissue is taken out to be weighted. The death time and death number of the mice in each group are recorded in detail; the survival conditions of the mice of the experimental groups and the control groups are analyzed, and the survival rate is calculated, wherein the survival rate is obtained through subtracting the death number of the mice from the total number of the mice, and then dividing the difference by the total number of the mice."}, "[3]": {"assay": "In vivo half-life period"}, "[4]": {"tested_on": "EGFR, c-Met, PDGFR, N-cadherin and LDLR", "assay": "Immunofluorescence co-localization of rLZ-8 with membrane receptors", "type": "cell-based", "protocol": "Considering that the high internalization degree of the rLZ-8 may be caused by the internalization after binding with a receptor on the cytomembrane, the rLZ-8 and the receptor on the cytomembrane are screened. Relationships between the different receptors on the cytomembrane and the tLZ-8 are measured through an immunofluorescence method. Fluorescent labels are made respectively on antibodies of EGFR, c-Met, PDGFR, N-cadherin and LDLR, and co-localization situations thereof with the rLZ-8 are respectively observed."}, "[5]": {"tested_on": "human colon cancer SW480 cells", "assay": "Transplantation tumor model of human colon cancer SW480 cells", "type": "in vivo, BALB/c nude mice", "conditions": "after administration for 28 days", "experimental": "The RPMI1640 medium containing 10% fetal bovine serum is selected for the human colon cancer SW480 cells, and then is placed in the CO2 constant-temperature incubator at 37° C. for culturing. The SW480 cells at the logarithmic phase are digested by pancreatin and thereafter washed with serum-free RPMI1640 medium; 2×10^6 cells are inoculated below the back skin of the BALB/c nude mice; after the tumor blocks for observation are formed and have the diameter larger than 0.5 cm, the mice are divided into groups randomly; and the transplantation tumor model of human colon cancer SW480 cells are constructed in the BALB/c nude mice."}, "[6]": {"tested_on": "human lung cancer A549 cells", "assay": "Orthotopic transplantation tumor model of human lung cancer A549 cells;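 note: test animals were NOG mice aged 6-8 weeks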", "conditions": "after administration for 28 days", "experimental": "The human lung cancer A549 cell strain is selected. The NOG Mice of 6-8 weeks old are selected.\nThe DMEM containing 10% fetal bovine serum is selected for the human lung cancer A549 cells, and then is placed in the CO2 constant-temperature incubator at 37° C. for culturing. The A549 cells at the logarithmic phase are digested by pancreatin and thereafter washed with serum-free DMEM; the living cell concentration is adjusted to 1×10^8 cells per milliliter; 20 μL cell suspension is taken and inoculated at the lung of the NOG mice; two weeks later, the orthotopic transplantation tumor model of A549 lung cancer cells is constructed in the NOG mice."}, "[7]": {"tested_on": "human breast cancer MCF7 cells", "assay": "Orthotopic transplantation tumor model of human breast cancer MCF7 cells", "type": "in vivo, BALB/c nude mice", "conditions": "after administration for 28 days", "protocol": "One day before the experiment, 0.5 mg of 17ß estradiol sustained release tablet is embedded below the neck skin of the BALB/c nude mice."}, "[8]": {"tested_on": "Hep G2 cells", "assay": "Cell death after rLZ-8 internalization", "type": "cell-based", "conditions": "100 μg/mL, 5 hours", "excerpt": "With the ultrahigh resolution imaging system, the whole change process of the cell after the internalization of the rLZ-8 is observed in real time; and, combined with the above researches, the reason why the rLZ-8 causes the tumor cell death is judged."}, "[9]": {"target": "EGFR extracellular domain (Homo sapiens, UniProt P00533)", "assay": "Affinity test by surface plasmon resonance (Biacore T200, CM5 chip)", "type": "binding", "conditions": "EGFR extracellular domain coupled on CM5 chip, analyte 4-256 nM", "protocol": "The Biacore™ T200 equipment (a Surface Plasmon Resonance from GE Company) is selected. Through the surface plasma resonance technology, the affinity of the rLZ-8 and the mutants thereof to the EGFR extracellular domain is tested. The CM5 chip is adopted to serve as the affinity test chip.\nThe EGFR extracellular domain (with an amino acid sequence of 25-645) serves as the ligand for coupling; 1 mg EGFR freeze-dried powders are diluted with HEPES buffer solution to a concentration of 400 μg/mL and set aside. Three 1.5 mL EP tubes are prepared; 10 μL ligand are respectively added into the three tubes, then 90 μL 10 mM sodium acetate with different pH values of 4.5, 5.0 and 5.5 are respectively added into the tubes and are mixed completely and uniformly; and a final concentration of the ligand is 40 μg/mL. Moreover, 200 μL 50 mM sodium acetate is added into another 1.5 mL EP tube.\nThe ligand has a molecular weight of 70 kDa, the analyte (rLZ-8) has a molecular weight of 12.4 kDa. In theory, one rLZ-8 […] can bind with one EGFR, and thus the stoichiometric ratio Sm is equal to 1. Through the following equations, the coupling amount RL of the ligand is calculated.\nThrough the experimental experience, the optimal reagent coupling amount is set to be 3*RL, and the coupling amount is set to be 1700 RU. The EGFR extracellular domain is successively coupled on the CM5 chip. […]"}, "[10]": {"tested_on": "S180", "conditions": "mouse; cited from earlier work"}, "[11]": {"tested_on": "transplanted liver cancer cells H22", "conditions": "mouse; cited from earlier work"}}, "data": [{"compound": "CCN(c1nc(N)c(C(=O)NC(=N)N)nc1Cl)C(C)C", "note": "[EIPA]", "values": [{"measurement": "Inhibitory effect on rLZ-8 internalization (in words)", "setting": "[1]; Hep G2 cells", "value": "effectively inhibits the internalization of the rLZ-8"}]}, {"compound": "CNC(=O)c1cc(Oc2ccc(NC(=O)Nc3ccc(Cl)c(C(F)(F)F)c3)cc2)ccn1", "note": "[Sorafenib, sorafenib, reference compound]", "values": [{"measurement": "Mice weight after experiment", "setting": "[2]", "value": "19.6 ± 1.6", "unit": "g"}, {"measurement": "Mice tumor weight after experiment", "setting": "[2]", "value": "0.82 ± 0.37", "unit": "g"}, {"measurement": "Survival rate of mice after experiment", "setting": "[2]", "value": 50, "unit": "%"}]}, {"compound": "mβCD", "values": [{"measurement": "Inhibition of internalization efficiency of the rLZ-8", "setting": "[1]", "value": 50, "unit": "%"}]}, {"compound": "rLZ-8: recombinant immunoprotein of Ganoderma lucidum, sequence SEQ ID NO: 1, expressed in Pichia pastoris", "values": [{"measurement": "In vivo half-life period (in words)", "setting": "[3]", "value": "relatively short in vivo half-life period"}, {"measurement": "Co-localization with other internalization-related membrane receptors (in words)", "setting": "[4]", "value": "no co-localization phenomenon"}, {"measurement": "Co-localization with the EGFR (in words)", "setting": "[4]", "value": "high-degree co-localization phenomenon"}, {"measurement": "Mice tumor weight after experiment", "setting": "[5]", "value": "1.94 ± 0.43", "unit": "g"}, {"measurement": "Mice survival rate after experiment", "setting": "[6]", "value": 50, "unit": "%"}, {"measurement": "Mice tumor weight after experiment", "setting": "[6]", "value": "0.60 ± 0.45", "unit": "g"}, {"measurement": "Mice weight after experiment", "setting": "[6]", "value": "20.8 ± 1.5", "unit": "g"}, {"measurement": "Mice tumor weight after experiment", "setting": "[7]", "value": "0.74 ± 0.35", "unit": "g"}, {"measurement": "Mice weight after experiment", "setting": "[2]", "value": "19.8 ± 1.4", "unit": "g"}, {"measurement": "Mice tumor weight after experiment", "setting": "[2]", "value": "0.62 ± 0.53", "unit": "g"}, {"measurement": "Survival rate of mice after experiment", "setting": "[2]", "value": 60, "unit": "%"}, {"measurement": "Cell death (in words)", "setting": "[8]", "value": "shrinkage, burst and death of Hep G2 cells happen"}, {"measurement": "Dissociation rate constant (koff)", "setting": "[9]", "value": 0.000583, "unit": "s⁻¹"}, {"measurement": "Ka", "setting": "[9]", "value": 63400, "unit": "M⁻¹ s⁻¹"}, {"measurement": "In vivo tumor growth (in words)", "setting": "[10]", "value": "can inhibit the in vivo growth"}, {"measurement": "In vivo tumor growth (in words)", "setting": "[11]", "value": "can inhibit the in vivo growth"}]}]}
